Assay results published in patent publication US7118895B2, “Process for producing aglycon by using diglycosidase and flavor-improved food containing the aglycon and converting agent to be used in the process” (Amano Enzyme Inc., priority 2000, dated 2006).

Assays:
[1] = tested on: Diglycosidase derived from P. multicolor; experiment: Reactivity toward various isoflavone glycosides (HPLC); format: biochemical, Penicillium multicolor; set-up: glucoside / aglycon: unit not given here; conditions: 55 °C, pH 4.0
Procedure, shortened: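 Aglycone liberation was measured by reversed-phase HPLC (260 nm, calibration-curve quantitation) after ethanol extraction at 0, 1, 3 and 6 h. Reactions ran at 55° C, pH 4.0 (20 mM acetate), with each glycoside (from 2 mM methanol stock) and 0.75 AU/mL enzyme solution.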

Crude diglycosidase = experiment: Examination of temperature in the conversion into isoflavone aglycons by diglycosidase using soybean materials; format: biochemical, Penicillium multicolor IAM7153; set-up: Decomposition efficiency of glycitin family in roasted soy flour / Decomposition efficiency of daidzin family in roasted soy flour / Decomposition efficiency of genistin family in soymilk / Decomposition efficiency of daidzin family in soymilk / Decomposition efficiency of glycitin family in defatted soybean / Decomposition efficiency of daidzin family in defatted soybean: concentration or dose not given beside the values
Procedure, shortened: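 Temperature series (30-80° C.) of crude diglycosidase, diluted to 1.88 AU/mL in 20 mM acetate pH 4.0, acting on roasted soy flour, soymilk, defatted soybean or soy protein concentrate. Samples quenched with ethanol after 0-6 h, centrifuged, filtered and analyzed by HPLC for glycosides versus aglycons.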

[2] = 30° C., heat treatment of enzyme no, reaction time 0 h
[3] = 30° C., heat treatment of enzyme no, reaction time 1 h
[4] = 30° C., heat treatment of enzyme no, reaction time 3 h
[5] = 30° C., heat treatment of enzyme no, reaction time 6 h
[6] = 30° C., heat treatment of enzyme yes, reaction time 6 h
[7] = 45° C., heat treatment of enzyme no, reaction time 0 h
[8] = 45° C., heat treatment of enzyme no, reaction time 1 h
[9] = 45° C., heat treatment of enzyme no, reaction time 3 h
[10] = 45° C., heat treatment of enzyme no, reaction time 6 h
[11] = 45° C., heat treatment of enzyme yes, reaction time 6 h
[12] = 45 °C, heat treatment of enzyme: no, 0 h
[13] = 45 °C, heat treatment of enzyme: no, 1 h
[14] = 45 °C, heat treatment of enzyme: no, 3 h
[15] = 45 °C, heat treatment of enzyme: no, 6 h
[16] = 45 °C, heat treatment of enzyme: yes, 6 h
[17] = 55° C., heat treatment of enzyme no, reaction time 0 h
[18] = 55° C., heat treatment of enzyme no, reaction time 1 h
[19] = 55° C., heat treatment of enzyme no, reaction time 3 h
[20] = 55° C., heat treatment of enzyme no, reaction time 6 h
[21] = 55° C., heat treatment of enzyme yes, reaction time 6 h
[22] = 55 °C, heat treatment of enzyme: no, 0 h
[23] = 55 °C, heat treatment of enzyme: no, 1 h
[24] = 55 °C, heat treatment of enzyme: no, 3 h
[25] = 55 °C, heat treatment of enzyme: no, 6 h
[26] = 55 °C, heat treatment of enzyme: yes, 6 h
[27] = 65° C., heat treatment of enzyme no, reaction time 0 h
[28] = 65° C., heat treatment of enzyme no, reaction time 1 h
[29] = 65° C., heat treatment of enzyme no, reaction time 3 h
[30] = 65° C., heat treatment of enzyme no, reaction time 6 h
[31] = 65° C., heat treatment of enzyme yes, reaction time 6 h
[32] = 65 °C, heat treatment of enzyme: no, 0 h
[33] = 65 °C, heat treatment of enzyme: no, 1 h
[34] = 65 °C, heat treatment of enzyme: no, 3 h
[35] = 65 °C, heat treatment of enzyme: no, 6 h
[36] = 65 °C, heat treatment of enzyme: yes, 6 h
[37] = 80° C., heat treatment of enzyme no, reaction time 0 h
[38] = 80° C., heat treatment of enzyme no, reaction time 1 h
[39] = 80° C., heat treatment of enzyme no, reaction time 3 h
[40] = 80° C., heat treatment of enzyme no, reaction time 6 h
[41] = 80° C., heat treatment of enzyme yes, reaction time 6 h
[42] = 80 °C, heat treatment of enzyme: no, 0 h
[43] = 80 °C, heat treatment of enzyme: no, 1 h
[44] = 80 °C, heat treatment of enzyme: no, 3 h
[45] = 80 °C, heat treatment of enzyme: no, 6 h
[46] = 80 °C, heat treatment of enzyme: yes, 6 h

Question: What does the source list for `O=c1c(-c2ccc(O)cc2)coc2cc(O[C@@H]3O[C@H](CO)[C@@H](O)[C@H](O)[C@H]3O)ccc12` [daidzin]?
Answer: aglycon ([1]; Reaction time 0 h): 0.9; glucoside ([1]; Reaction time 0 h): 99.1; aglycon ([1]; Reaction time 1 h): 70.1; glucoside ([1]; Reaction time 1 h): 29.9; aglycon ([1]; Reaction time 3 h): 81.8; glucoside ([1]; Reaction time 3 h): 18.2; aglycon ([1]; Reaction time 6 h): 88.5; glucoside ([1]; Reaction time 6 h): 11.5; Decomposition efficiency of daidzin family in concentrated soybean protein (Crude diglycosidase; [2]): 52.3%; Decomposition efficiency of daidzin family in defatted soybean (Crude diglycosidase; [2]): 42.2%; Decomposition efficiency of daidzin family in concentrated soybean protein (Crude diglycosidase; [3]): 29.5%; Decomposition efficiency of daidzin family in defatted soybean (Crude diglycosidase; [3]): not detected; Decomposition efficiency of daidzin family in concentrated soybean protein (Crude diglycosidase; [4]): 13.4%; Decomposition efficiency of daidzin family in defatted soybean (Crude diglycosidase; [4]): not detected; Decomposition efficiency of daidzin family in concentrated soybean protein (Crude diglycosidase; [5]): 4.0%; Decomposition efficiency of daidzin family in defatted soybean (Crude diglycosidase; [5]): not detected; Decomposition efficiency of daidzin family in concentrated soybean protein (Crude diglycosidase; [6]): 54.5%; Decomposition efficiency of daidzin family in defatted soybean (Crude diglycosidase; [6]): not detected; Decomposition efficiency of daidzin family in soymilk (Crude diglycosidase; 30 °C, heat treatment of enzyme: no, 0 h): 34.1%; Decomposition efficiency of daidzin family in soymilk (Crude diglycosidase; 30 °C, heat treatment of enzyme: no, 1 h): not detected; Decomposition efficiency of daidzin family in soymilk (Crude diglycosidase; 30 °C, heat treatment of enzyme: no, 3 h): not detected; Decomposition efficiency of daidzin family in soymilk (Crude diglycosidase; 30 °C, heat treatment of enzyme: no, 6 h): not detected; Decomposition efficiency of daidzin family in soymilk (Crude diglycosidase; 30 °C, heat treatment of enzyme: yes, 6 h): 34.8%; Decomposition efficiency of daidzin family in roasted soy flour (Crude diglycosidase; 35 °C, heat treatment of enzyme: no, 0 h): 48.6%; Decomposition efficiency of daidzin family in roasted soy flour (Crude diglycosidase; 35 °C, heat treatment of enzyme: no, 1 h): 11.7%; Decomposition efficiency of daidzin family in roasted soy flour (Crude diglycosidase; 35 °C, heat treatment of enzyme: no, 3 h): not detected; Decomposition efficiency of daidzin family in roasted soy flour (Crude diglycosidase; 35 °C, heat treatment of enzyme: no, 6 h): not detected; Decomposition efficiency of daidzin family in roasted soy flour (Crude diglycosidase; 35 °C, heat treatment of enzyme: yes, 6 h): 50.3%; Decomposition efficiency of daidzin family in concentrated soybean protein (Crude diglycosidase; [7]): 52.4%; Decomposition efficiency of daidzin family in defatted soybean (Crude diglycosidase; [7]): 40.5%; Decomposition efficiency of daidzin family in concentrated soybean protein (Crude diglycosidase; [8]): 10.6%; Decomposition efficiency of daidzin family in defatted soybean (Crude diglycosidase; [8]): not detected; Decomposition efficiency of daidzin family in concentrated soybean protein (Crude diglycosidase; [9]): 9.6%; Decomposition efficiency of daidzin family in defatted soybean (Crude diglycosidase; [9]): not detected; Decomposition efficiency of daidzin family in concentrated soybean protein (Crude diglycosidase; [10]): 1.7%; Decomposition efficiency of daidzin family in defatted soybean (Crude diglycosidase; [10]): not detected; Decomposition efficiency of daidzin family in concentrated soybean protein (Crude diglycosidase; [11]): 94.3%; Decomposition efficiency of daidzin family in defatted soybean (Crude diglycosidase; [11]): not detected; Decomposition efficiency of daidzin family in roasted soy flour (Crude diglycosidase; [12]): 48.6%; Decomposition efficiency of daidzin family in soymilk (Crude diglycosidase; [12]): 33.9%; Decomposition efficiency of daidzin family in roasted soy flour (Crude diglycosidase; [13]): 3.6%; Decomposition efficiency of daidzin family in soymilk (Crude diglycosidase; [13]): 6.8%; Decomposition efficiency of daidzin family in roasted soy flour (Crude diglycosidase; [14]): 2.7%; Decomposition efficiency of daidzin family in soymilk (Crude diglycosidase; [14]): 6.9%; Decomposition efficiency of daidzin family in roasted soy flour (Crude diglycosidase; [15]): 5.4%; Decomposition efficiency of daidzin family in soymilk (Crude diglycosidase; [15]): 6.9%; Decomposition efficiency of daidzin family in roasted soy flour (Crude diglycosidase; [16]): 49.4%; Decomposition efficiency of daidzin family in soymilk (Crude diglycosidase; [16]): 36.0%; Decomposition efficiency of daidzin family in concentrated soybean protein (Crude diglycosidase; [17]): 52.5%; Decomposition efficiency of daidzin family in defatted soybean (Crude diglycosidase; [17]): 42.2%; Decomposition efficiency of daidzin family in concentrated soybean protein (Crude diglycosidase; [18]): 1.0%; Decomposition efficiency of daidzin family in defatted soybean (Crude diglycosidase; [18]): not detected; Decomposition efficiency of daidzin family in concentrated soybean protein (Crude diglycosidase; [19]): not detected; Decomposition efficiency of daidzin family in defatted soybean (Crude diglycosidase; [19]): not detected; Decomposition efficiency of daidzin family in concentrated soybean protein (Crude diglycosidase; [20]): not detected; Decomposition efficiency of daidzin family in defatted soybean (Crude diglycosidase; [20]): not detected; Decomposition efficiency of daidzin family in concentrated soybean protein (Crude diglycosidase; [21]): 54.6%; Decomposition efficiency of daidzin family in defatted soybean (Crude diglycosidase; [21]): not detected; Decomposition efficiency of daidzin family in roasted soy flour (Crude diglycosidase; [22]): 48.8%; Decomposition efficiency of daidzin family in soymilk (Crude diglycosidase; [22]): 34.2%; Decomposition efficiency of daidzin family in roasted soy flour (Crude diglycosidase; [23]): not detected; Decomposition efficiency of daidzin family in soymilk (Crude diglycosidase; [23]): not detected; Decomposition efficiency of daidzin family in roasted soy flour (Crude diglycosidase; [24]): not detected; Decomposition efficiency of daidzin family in soymilk (Crude diglycosidase; [24]): not detected; Decomposition efficiency of daidzin family in roasted soy flour (Crude diglycosidase; [25]): not detected; Decomposition efficiency of daidzin family in soymilk (Crude diglycosidase; [25]): not detected; Decomposition efficiency of daidzin family in roasted soy flour (Crude diglycosidase; [26]): 51.1%; Decomposition efficiency of daidzin family in soymilk (Crude diglycosidase; [26]): 40.7%; Decomposition efficiency of daidzin family in concentrated soybean protein (Crude diglycosidase; [27]): 52.3%; Decomposition efficiency of daidzin family in defatted soybean (Crude diglycosidase; [27]): 40.5%; Decomposition efficiency of daidzin family in concentrated soybean protein (Crude diglycosidase; [28]): 1.8%; Decomposition efficiency of daidzin family in defatted soybean (Crude diglycosidase; [28]): not detected; Decomposition efficiency of daidzin family in concentrated soybean protein (Crude diglycosidase; [29]): 1.7%; Decomposition efficiency of daidzin family in defatted soybean (Crude diglycosidase; [29]): not detected; Decomposition efficiency of daidzin family in concentrated soybean protein (Crude diglycosidase; [30]): 1.7%; Decomposition efficiency of daidzin family in defatted soybean (Crude diglycosidase; [30]): not detected; Decomposition efficiency of daidzin family in concentrated soybean protein (Crude diglycosidase; [31]): 53.2%; Decomposition efficiency of daidzin family in defatted soybean (Crude diglycosidase; [31]): 32.8%; Decomposition efficiency of daidzin family in roasted soy flour (Crude diglycosidase; [32]): 48.6%; Decomposition efficiency of daidzin family in soymilk (Crude diglycosidase; [32]): 34.1%; Decomposition efficiency of daidzin family in roasted soy flour (Crude diglycosidase; [33]): not detected; Decomposition efficiency of daidzin family in soymilk (Crude diglycosidase; [33]): not detected; Decomposition efficiency of daidzin family in roasted soy flour (Crude diglycosidase; [34]): not detected; Decomposition efficiency of daidzin family in soymilk (Crude diglycosidase; [34]): not detected; Decomposition efficiency of daidzin family in roasted soy flour (Crude diglycosidase; [35]): not detected; Decomposition efficiency of daidzin family in soymilk (Crude diglycosidase; [35]): not detected; Decomposition efficiency of daidzin family in roasted soy flour (Crude diglycosidase; [36]): 49.7%; Decomposition efficiency of daidzin family in soymilk (Crude diglycosidase; [36]): 48.7%; Decomposition efficiency of daidzin family in concentrated soybean protein (Crude diglycosidase; [37]): 52.4%; Decomposition efficiency of daidzin family in defatted soybean (Crude diglycosidase; [37]): 40.5%; Decomposition efficiency of daidzin family in concentrated soybean protein (Crude diglycosidase; [38]): 22.6%; Decomposition efficiency of daidzin family in defatted soybean (Crude diglycosidase; [38]): 7.8%; Decomposition efficiency of daidzin family in concentrated soybean protein (Crude diglycosidase; [39]): 23.3%; Decomposition efficiency of daidzin family in defatted soybean (Crude diglycosidase; [39]): 19.2%; Decomposition efficiency of daidzin family in concentrated soybean protein (Crude diglycosidase; [40]): 25.5%; Decomposition efficiency of daidzin family in defatted soybean (Crude diglycosidase; [40]): 30.4%; Decomposition efficiency of daidzin family in concentrated soybean protein (Crude diglycosidase; [41]): 54.5%; Decomposition efficiency of daidzin family in defatted soybean (Crude diglycosidase; [41]): 60.9%; Decomposition efficiency of daidzin family in roasted soy flour (Crude diglycosidase; [42]): 48.6%; Decomposition efficiency of daidzin family in soymilk (Crude diglycosidase; [42]): 33.9%; Decomposition efficiency of daidzin family in roasted soy flour (Crude diglycosidase; [43]): 3.2%; Decomposition efficiency of daidzin family in soymilk (Crude diglycosidase; [43]): 8.9%; Decomposition efficiency of daidzin family in roasted soy flour (Crude diglycosidase; [44]): 4.4%; Decomposition efficiency of daidzin family in soymilk (Crude diglycosidase; [44]): 23.9%; Decomposition efficiency of daidzin family in roasted soy flour (Crude diglycosidase; [45]): 12.5%; Decomposition efficiency of daidzin family in soymilk (Crude diglycosidase; [45]): 42.9%; Decomposition efficiency of daidzin family in roasted soy flour (Crude diglycosidase; [46]): 51.3%; Decomposition efficiency of daidzin family in soymilk (Crude diglycosidase; [46]): 69.5%
